From ChEMBL document CHEMBL3243969, “Synthesis and chemical carcinogen inhibitory activity of 2-tert-butyl-4-hydroxyanisole” (J Med Chem, 1979)
“And” between values parts separate entries of the source, which are not always exact repeats. Identical values can stand only once.

Tests used:
[1] = test system: Mus musculus; assay: Toxicity in ICR/Ha mouse forestomach assessed as body weight gained at 5 mg/kg administered through diet for 1 week prior to benzo[alpha]pyrene challenge and continued additional 2 days post last dose of benzo[alpha]pyrene relative to control; assay type: organism-based, Stomach; set-up: dose 5 mg/kg; details: in vivo, po
[2] = test system: Mus musculus; assay: Toxicity in ICR/Ha mouse forestomach assessed as diet intake at 5 mg/kg administered through diet for 1 week prior to benzo[alpha]pyrene challenge and continued additional 2 days post last dose of benzo[alpha]pyrene (reference value: 4.3 g/day); assay type: organism-based, Stomach; set-up: dose 5 mg/kg; details: in vivo, po
[3] = test system: Mus musculus; assay: (§1) Antineoplastic activity in ICR/Ha mouse forestomach assessed as decrease in benzo[alpha]pyrene-induced tumor incidence at 5 mg/kg administered through diet for 1 week prior to benzo[alpha]pyrene challenge and continued additional 2 days post last dose of benzo[alpha]pyrene by dissecting microscopic analysis relative to control; assay type: functional, Stomach; set-up: scale not given: the % may be the effect or the level left
[4] = test system: Mus musculus; assay: as §1, with “inhibition of” for “decrease in”, “growth” for “incidence”; assay type: functional, Stomach
[5] = Antioxidant activity of the compound relative to control; assay type: functional

**Q.** With `COc1ccc(O)c(C(C)(C)C)c1.COc1ccc(O)cc1C(C)(C)C` [BUTYLATED HYDROXYANISOLE] as the compound, how does the Activity [1] read?
**A.** The Activity was 10.8 g and 7.4 g.

**Q.** And the Activity [2]?
**A.** The Activity was 3.6 g/day and 3.7 g/day.

**Q.** And the Activity [3]?
**A.** The Activity was 30% and 10%.

**Q.** What about the TGI ([4]; 5 mg/kg) of the same compound?
**A.** Its TGI is 50%.

**Q.** And the inhibition in vivo at 5 mg/kg ([4]; Mus musculus, ICR/Ha, Stomach, read-out: TGI)?
**A.** The inhibition in vivo at 5 mg/kg was 70%.

**Q.** And the fold change (FC) [5]?
**A.** The fold change (FC) was 1.1 and 0.4.
